Reference: ChEMBL document CHEMBL1201862, “PubChem BioAssay data set” (2004)
Calls of active or inactive are those of the source.

What was measured:
Escherichia coli = assay: microbe, parasite or virus in culture
[1] = biological target: Voltage-gated inwardly rectifying potassium channel KCNH2 (Homo sapiens, UniProt Q12809); conditions: Potency;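 further: confirmatory quantitative high-throughput screen measuring inhibition of hERG channel activity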
CAAX prenyl protease 2 = CAAX prenyl protease 2 (Homo sapiens, UniProt Q9Y256); assay: inhibition of Ras-converting CAAX protease Rce1 – biochemical, yeast membranes, quenched-peptide fluorescence, cherry-pick, dose response (AID 588849)
[2] = biological target: 5-hydroxytryptamine receptor 5A (Homo sapiens, UniProt P47898); assay: Counterscreen for agonists of OPRM1-OPRD1 heterodimerization: luminescence-based cell-based high throughput dose response assay to identify agonists of 5-hydroxytryptamine (serotonin) 5A receptor (HTR5A). [Related pubchem assays (depositor defined):AID504326, AID504355, AID504692, AID504904, AID504905]; type: functional
[3] = biological target: Delta-type opioid receptor (Homo sapiens, UniProt P41143); assay: Counterscreen for agonists of heterodimerization of the mu 1 (OPRM1) and delta 1 (OPRD1) opioid receptors: Luminescence-based cell-based high throughput dose response assay to identify agonists of OPRD1 homodimerization. [Related pubchem assays (depositor defined):AID504326, AID504355, AID504692, AID504904, AID504905]; type: functional
Mu-type opioid receptor = Mu-type opioid receptor (Homo sapiens, UniProt P35372); assay: Counterscreen for agonists of heterodimerization of the mu 1 (OPRM1) and delta 1 (OPRD1) opioid receptors: Luminescence-based cell-based high throughput dose response assay to identify agonists of OPRM1 homodimerization.; type: functional;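 further: U2OS cells expressing OPRM1 and beta-arrestin as split beta-galactosidase partners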
Chain of Mu-type opioid receptor (P35372 whole entry): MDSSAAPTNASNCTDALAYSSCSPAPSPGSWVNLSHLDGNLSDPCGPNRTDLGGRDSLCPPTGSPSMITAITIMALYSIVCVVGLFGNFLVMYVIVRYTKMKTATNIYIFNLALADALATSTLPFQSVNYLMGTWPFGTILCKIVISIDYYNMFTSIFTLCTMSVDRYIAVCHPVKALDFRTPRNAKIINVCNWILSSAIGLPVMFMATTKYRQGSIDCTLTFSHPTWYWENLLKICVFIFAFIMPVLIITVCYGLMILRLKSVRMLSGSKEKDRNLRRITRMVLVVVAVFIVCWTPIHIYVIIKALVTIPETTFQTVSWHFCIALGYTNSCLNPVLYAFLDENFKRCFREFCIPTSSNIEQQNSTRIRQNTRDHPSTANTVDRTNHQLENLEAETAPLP

Chain of CAAX prenyl protease 2 (Q9Y256 whole entry): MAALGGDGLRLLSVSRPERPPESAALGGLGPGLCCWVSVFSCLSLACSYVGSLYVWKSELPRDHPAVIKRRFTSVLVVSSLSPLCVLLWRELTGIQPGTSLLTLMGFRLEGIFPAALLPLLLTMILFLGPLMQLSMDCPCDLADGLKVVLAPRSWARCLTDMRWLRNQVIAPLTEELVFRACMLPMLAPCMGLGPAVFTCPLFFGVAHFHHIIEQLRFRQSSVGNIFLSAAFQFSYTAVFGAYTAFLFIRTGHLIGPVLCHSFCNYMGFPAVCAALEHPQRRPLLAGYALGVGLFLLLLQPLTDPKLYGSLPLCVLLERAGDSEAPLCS
Chain of Voltage-gated inwardly rectifying potassium channel KCNH2 (Q12809 whole entry): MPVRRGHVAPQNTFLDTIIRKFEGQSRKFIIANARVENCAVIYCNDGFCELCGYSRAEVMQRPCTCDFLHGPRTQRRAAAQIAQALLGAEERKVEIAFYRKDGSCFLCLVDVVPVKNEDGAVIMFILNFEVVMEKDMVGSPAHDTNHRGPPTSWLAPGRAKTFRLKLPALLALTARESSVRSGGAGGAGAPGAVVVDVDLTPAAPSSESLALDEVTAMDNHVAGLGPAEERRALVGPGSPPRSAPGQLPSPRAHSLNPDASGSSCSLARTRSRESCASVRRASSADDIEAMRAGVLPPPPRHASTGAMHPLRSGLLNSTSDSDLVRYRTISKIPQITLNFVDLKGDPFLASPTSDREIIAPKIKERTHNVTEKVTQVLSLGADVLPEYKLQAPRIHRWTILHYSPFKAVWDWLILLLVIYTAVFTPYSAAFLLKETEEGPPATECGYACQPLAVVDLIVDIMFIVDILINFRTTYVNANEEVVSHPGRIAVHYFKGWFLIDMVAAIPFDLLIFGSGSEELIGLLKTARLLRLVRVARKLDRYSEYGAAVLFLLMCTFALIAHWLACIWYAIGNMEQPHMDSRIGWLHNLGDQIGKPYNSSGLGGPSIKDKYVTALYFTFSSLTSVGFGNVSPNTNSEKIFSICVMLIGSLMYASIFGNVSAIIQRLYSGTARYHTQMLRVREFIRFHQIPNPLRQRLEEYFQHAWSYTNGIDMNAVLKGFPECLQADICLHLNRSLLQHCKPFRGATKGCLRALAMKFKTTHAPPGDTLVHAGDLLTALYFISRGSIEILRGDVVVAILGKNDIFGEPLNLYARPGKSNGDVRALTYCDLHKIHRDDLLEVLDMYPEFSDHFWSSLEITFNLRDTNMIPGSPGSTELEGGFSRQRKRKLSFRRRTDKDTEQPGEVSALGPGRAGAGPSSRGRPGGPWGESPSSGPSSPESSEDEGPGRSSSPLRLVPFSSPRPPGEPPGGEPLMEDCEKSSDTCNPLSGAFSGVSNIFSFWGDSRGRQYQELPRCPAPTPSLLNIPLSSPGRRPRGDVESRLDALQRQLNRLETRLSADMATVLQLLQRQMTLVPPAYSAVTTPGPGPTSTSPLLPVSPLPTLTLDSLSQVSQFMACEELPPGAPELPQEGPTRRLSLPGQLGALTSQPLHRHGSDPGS
Chain of 5-hydroxytryptamine receptor 5A (P47898 whole entry): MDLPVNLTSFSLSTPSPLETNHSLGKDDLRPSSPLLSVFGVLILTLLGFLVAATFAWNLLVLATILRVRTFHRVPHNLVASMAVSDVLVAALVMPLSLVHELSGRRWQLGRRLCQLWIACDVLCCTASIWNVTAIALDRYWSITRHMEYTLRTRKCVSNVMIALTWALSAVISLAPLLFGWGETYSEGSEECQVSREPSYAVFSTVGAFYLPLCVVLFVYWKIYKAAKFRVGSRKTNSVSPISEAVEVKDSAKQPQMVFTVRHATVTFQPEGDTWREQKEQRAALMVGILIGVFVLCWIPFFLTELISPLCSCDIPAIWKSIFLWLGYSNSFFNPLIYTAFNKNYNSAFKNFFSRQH
Chain of Delta-type opioid receptor (P41143 whole entry): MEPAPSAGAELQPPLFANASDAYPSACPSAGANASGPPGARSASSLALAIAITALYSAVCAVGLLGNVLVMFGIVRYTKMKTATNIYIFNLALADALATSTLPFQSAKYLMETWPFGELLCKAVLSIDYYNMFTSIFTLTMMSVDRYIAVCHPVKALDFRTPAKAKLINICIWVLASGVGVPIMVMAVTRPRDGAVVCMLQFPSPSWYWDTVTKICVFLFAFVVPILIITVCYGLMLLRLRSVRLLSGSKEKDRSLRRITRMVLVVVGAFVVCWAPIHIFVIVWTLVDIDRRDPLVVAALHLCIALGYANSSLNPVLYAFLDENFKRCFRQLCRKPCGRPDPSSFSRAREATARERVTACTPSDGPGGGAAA

In the case of `O=C(CN1CCCCC1)Nc1cc(Cl)ccc1Cl`, the AC50 (Escherichia coli) was 144 µM (active).

`N#CC(Cc1ccc(O)c(O)c1)C(=O)N1CCc2ccccc21` (stereo unspecified) was tested, and the AC50 [1] was 15.8 µM (inconclusive).

With `O=C(CCNS(=O)(=O)c1ccc2nc(O)oc2c1)NCc1ccccc1` the AC50 (CAAX prenyl protease 2) was > 100 µM (inactive).

For `CCOC(=O)C1(CC2CCCCO2)CCN(Cc2ccc(OC)cc2F)CC1` (stereo unspecified), the EC50 [2] was > 92.5 µM (inactive), the EC50 [3] was > 92.5 µM (inactive) and the EC50 (Mu-type opioid receptor) was > 92.5 µM (inactive).
